The record followed here is patent US20220364056A1, “SHORT-CHAIN FATTY ACID PENTANOATE AS ENHANCER FOR CELLULAR THERAPY AND ANTI-TUMOR THERAPY” (PHILIPPS-UNIVERSITÄT MARBURG, priority 2019, published 2022).

For one experiment, the system named is CTLs. As to the kind of experiment: co-transfer of pentanoate-treated and control CTLs into Rag1-deficient mice. The class given is in vivo. The text has this:
To investigate the capacity of SCFAs on survival and persistence of CD8^+ T cells, we mixed pentanoate-treated CTLs (CD45.2^+) with control CTLs (CD45.1^+) at 1:1 ratio and co-transferred them into Rag1-deficient mice. To better mimic the in vivo tumor microenvironment, we also adoptively co-transferred Tregs (CD45.2^+ from FIR×tiger reporter mice) that are frequently found in solid tumors. In addition, Foxp3^−CD4^+ T cells were co-transferred as the cellular source of IL-2 (FIG. 9, A and B). […] The capacity of CFSE to label proliferative cells was used for in vivo monitoring of CD8^+ T cell proliferation in Rag1-deficient mice after pretreatment with pentanoate. […] Given the importance of CD25 in supporting an effective IL-2R signalling, as well as the proliferation and survival of lymphocytes, we next asked whether pentanoate is capable of modulating CD25 expression in CTLs.
(A) experimental setup for investigating CTL persistence in vivo is shown. (B-D) The frequency (B, C) and total cell numbers (D) of transferred T cells (WT CD45.1^+ CTLs, WT CD45.2^+ pentanoate-treated CTLs and Foxp3^+CD45.2^+ Tregs from FIR×tiger mice) in Rag1-deficient mice on days 15 after the adoptive transfer are shown. The co-transferred Foxp3^−CD4^+ cells were excluded from the gate (B, C). In D, n=_3 mice/group/experiment, data from 2 pooled independent experiments are shown. […] (G and H) Frequencies and cell numbers of CD25^+ CD8^+ T cells were analysed by flow cytometry on day 15 after transfer of control CTLs (CD45.1^+) and pentanoate-treated CTLs (CD45.2^+) into Rag1-deficient mice (n=3 mice/group/experiment, data pooled from 2 independent experiments). […] The phosphorylated (p)-STAT5 levels were analysed by flow cytometry (n=5, performed in 3 independent experiments). (J) The secretion of IL-2 in pentanoate-treated CTLs cultured for indicated time points was measured by ELISA (n=4, pooled from 2 independent experiments).

The next experiment relates to HDAC. Put plainly: fluorogenic HDAC assay on CTL-derived cell lysates. It is filed as biochemical, murine. The following applies: unstimulated CTLs set to 1.0. How it is done: (A) Experimental design for the treatment of CTLs with the water-soluble fraction of intestinal content derived from SPF or GF mice. (B and C) Frequencies of IFN-γ- and TNF-α-producing CTLs treated with the extract from luminal content derived from indicated organs. Representative results of two experiments are shown (n=3). (D) ELISA was performed to measure the secretion of TNF-α by CLTs treated as shown in (A). (E) Quantitative measurement of total SCFA amounts in fecal samples of SPF and GF mice (n=5). (F and G) The percentage of IFN-γ^+ TNF-α^+ CTLs treated with the indicated SCFAs for three days (n=3, one of three independent experiments is shown). (H) The secretion of TNF-α from CTLs treated with SCFAs was determined by ELISA (n=3, one of two independent experiments is shown). (I) The fluorogenic HDAC assay was applied to measure the HDAC inhibitory activity of SCFAs on CTLs. The value for unstimulated CTLs was arbitrarily set to 1.0. Four independent experiments were performed. (J and K) Representative contour plots (J) and bar graphs (K) showing the frequency of IFN-γ+ and TNF-α+ cells after pentanoate (2 mM) or VPA (0.5 mM) administration. Three similar experiments were performed. (L and M) The frequency of Eomes- and T-bet-expressing CTLs treated with pentanoate (2 mM) or VPA (0.5 mM) for three days was analyzed by flow cytometry (n=4). […]

A further experiment relates to histones H3 and H4. Put plainly: Western blot of H3Ac and H4Ac in CD8+ T cells. The following applies: SCFAs for 3 days. The class given is cell-based, murine. How it is done:
Representative histogram plots (A) and bar graphs (B) are showing the frequency of Annexin V^+ cells. Three similar experiments were performed. (C) Representative effector molecule staining of CD8^+ T cells polarized under suboptimal CTL-inducing conditions, treated with pentanoate or TSA (10 nM Sigma-Aldrich) in presence of 2-DG (1 mM, Sigma-Aldrich) or rapamycin (100 nM, Sigma-Aldrich) for 3 days. Three independent experiments were performed. (D) Western blot analysis of H3Ac and H4Ac in CD8^+ T cells treated with SCFAs for 3 days. (E) Pan-H4Ac ChIP qPCR analysis for Tbx21 promoter accessibility in pentanoate-treated CTLs. Data are from pooled chromatin of three mice. (F and G) CD8^+ T cells isolated from WT and Tbx21^−/− mice were polarized under suboptimal CTL-inducing conditions in presence of increasing pentanoate concentrations. Representative contour plots (F) and bar graphs (G) show the frequency of IFN-γ+ and IL-17A^+ cells. Two similar experiments were performed.

As for `CCCCC(=O)O` [pentanoate], in the experiment with CTLs (day 15 after transfer, vs control CTLs), the “frequencies and numbers of CD25+CD8+ T cells in iLN, mLN and spleen” value is “increased frequencies and numbers”. Also, the “in vivo proliferation of CFSE labelled CD8+ T cells” value with CTLs (days 4 after transfer, vs control CTLs) was “stronger proliferative ability”. For the same molecule, the “cell number and frequency of transferred CD8+ T lymphocytes” value in the experiment on CTLs (days 15 after transfer, without cognate antigen) was “high cell number and frequency”. Further, the “HDAC activity of CTL-derived cell lysates” value in the experiment on HDAC is recorded as “strong reduction of HDAC activity”. Also, the “acetylation of histones H3 and H4” value in the experiment with histones H3 and H4 was “increased acetylation”.
